{
  "source": "patent US20140173781A1",
  "about": "“METHODS AND COMPOSITIONS FOR PRODUCING AND SELECTING TRANSGENIC WHEAT PLANTS” (PIONEER HI-BRED INTERNATIONAL, INC., priority 2012, published 2014)",
  "assay_type_in_all_cases": "in vivo",
  "key": {"sugarcane plants": {"tested_on": "sugarcane plants", "assay": "Glyphosate spray test on sugarcane T0 plantlets", "conditions": "4× glyphosate", "description": "T0 plantlets were then moved to soil and spray tested with 4× glyphosate to confirm excision/glyphosate resistance. […] The final confirmation of stable transformation frequency is determined based on molecular analysis such as PCR and Southern blot hybridization."}, "[1]": {"tested_on": "maize inbred PHR03 plants", "assay": "Glyphosate spray test on plants germinated from T1 mature corn seed", "conditions": "glyphosate+surfactant at 2× or 4×", "from_the_text": "Immature embryos of maize inbred PHR03 were transformed with the excision vector AGL1/PHP54353, the expression of DsRed was visually confirmed, and T0 plantlets were regenerated as described in Example 5. Before moving the T0 plantlets to soil, the expression of DsRed was again visually confirmed.\nTo confirm that the natural desiccation process that occurs during seed maturation would in fact allow for the excision of DsRed and resistance to glyphosate, seeds collected from T0 plants crossed with wild-type PHR03 pollen were germinated in soil. By planting seeds straight to soil without any treatments, excision would be a result of natural processes.\nThree random events were chosen to be tested by this method. Five mature T1 seeds each from the following events, PHP54353 T0 event numbers 6, 7, and 10 were placed in small pots with Metro Mix soil (Sun Gro Horticulture, McFarland, Calif.) with fertilizer and placed in the greenhouse. After plants had germinated and grown to about 12-18 cm (10-12 days after planting), the plants were then sprayed with glyphosate+surfactant at 2× or 4× concentration (1× is equivalent to what is used in the field). Before spraying, all pots were evenly spaced and positioned to ensure that they would receive an even distribution of glyphosate. The distance between the sprayer nozzle and the apical meristem of the plants was approximately 18 inches. Within 10-12 days, it was visibly evident which plants were not affected by the herbicide and which plants had been severely damaged."}, "tobacco seeds": {"tested_on": "tobacco seeds", "assay": "Germination of tobacco T1 immature seeds on glyphosate medium", "conditions": "20-50 μM glyphosate; transgenic and nontransgenic tobacco seeds without desiccation treatment", "description": "(§1) T1 immature seeds from transgenic tobacco plants are isolated, sterilized with 15% Clorox+2 drops of Tween 20 and rinsed with autoclaved water 3 times. Sterilized immature seeds are placed on sterile fiber glass filter paper in a Petri dish. The Petri dish is […] and with 20-50 μM glyphosate for selection. One to 2 weeks later, DsRed expression is checked in the emerging shoots. Immature seeds that have been properly desiccated have very weak or no DsRed expression as the gene is excised via the LoxP sites. […] Immature seeds that successfully underwent gene excision by desiccation will have glyphosate resistance and regenerate on medium containing 20-50 μM glyphosate."}, "soybean seeds": {"tested_on": "soybean seeds", "assay": "Germination of soybean T1 immature seeds on glyphosate medium", "conditions": "20-50 μM glyphosate; transgenic and nontransgenic soybean seeds without desiccation treatment", "description": "as §1, with “immature pods” for “immature seeds”, “transgenic soybean” for “transgenic tobacco”, “are harvested,” for “are isolated,”, “times. Immature” for “times. Sterilized immature”, “are isolated from sterilized pods and” for “are”, “desiccated will” for “desiccated”"}},
  "data": [
    {"smiles": "O=C(O)CNCP(=O)(O)O", "note": "[glyphosate, N-phosphonomethylglycine]", "values": [
      {"measurement": "Glyphosate Spray Test", "setting": "sugarcane plants; independent T0 events (PHP54561, after excision) from 3 sugarcane cultivars", "result": "strong glyphosate resistance"},
      {"measurement": "Glyphosate Spray Test", "setting": "sugarcane plants; plants of 3 nontransgenic sugarcane cultivars", "result": "completely killed"},
      {"measurement": "Glyphosate Spray Test", "setting": "[1]; PHP54353 lab event 6 T1 plants, fraction of plants tolerant", "result": "2/4 plants tolerant"},
      {"measurement": "Glyphosate Spray Test", "setting": "[1]; PHP54353 lab event 7 T1 plants", "result": "5/5 plants damaged"},
      {"measurement": "Glyphosate Spray Test", "setting": "[1]; PHP54353 lab event 10 T1 plants", "result": "4/4 plants damaged"},
      {"measurement": "Glyphosate Spray Test", "setting": "[1]; PHP54353 lab event 13 T1 plants, fraction of plants tolerant", "result": "2/5 plants tolerant"},
      {"measurement": "Glyphosate Spray Test", "setting": "[1]; Wild-type PHR03 plants", "result": "4/4 plants damaged"},
      {"measurement": "germination", "setting": "tobacco seeds", "result": "completely inhibited"},
      {"measurement": "germination", "setting": "soybean seeds", "result": "completely inhibited"}
    ]}
  ]
}
